Holding throughout (type): functional
Assay [1] has as its system Staphylococcus aureus. The assay is described as follows: Minimum inhibitory concentration against growth of Methicillin resistant […] aureus.
The test system of assay [2] is Staphylococcus aureus. The assay is described as follows: Minimum inhibitory concentration against growth of […] aureus (ATCC 29213).
Assay [3] concerns Enterococcus faecalis. The assay is described as follows: Minimum inhibitory concentration against growth of Enterococcus faecalis (ATCC 29212).
Assay [4] deals with Enterococcus faecalis. Briefly: Minimum inhibitory concentration against growth of vancomycin-resistant Enterococcus faecalis (ATCC 51299).

≈ marks a conversion by molar mass, not a printed value. A value given as a limit tells only on which side of the number the result lay.

Broadly, the MIC is the smallest concentration in the dilution series that meets the test's criterion for growth inhibition. High values mean a less susceptible organism, low ones a more susceptible organism. In the case of `CCCN(CCC)[C@H](CC(C)C)C(=O)N[C@H]1C(=O)N[C@@H](CC(N)=O)C(=O)N[C@H]2C(=O)N[C@H]3C(=O)N[C@H](C(=O)N[C@H](C(=O)NCC(=O)O)c4cc(O)cc(O)c4-c4cc3ccc4O)[C@H](O)c3ccc(c(Cl)c3)Oc3cc2cc(c3O[C@@H]2O[C@@H](CO)[C@@H](O)[C@H](O)[C@@H]2O[C@H]2C[C@](C)(Nc3ccc(-c4ccccc4)cc3)[C@H](O)[C@H](C)O2)Oc2ccc(cc2Cl)[C@H]1O`, the MIC with Staphylococcus aureus [1] is 5 µg/mL (≈ 2.89 µM); in the assay with Staphylococcus aureus [2], 5 µg/mL (≈ 2.89 µM); against Enterococcus faecalis [3] it was greater than 10 µg/mL; against Enterococcus faecalis [4], greater than 10 µg/mL.
Turning to `CCC(CC)N[C@H](CC(C)C)C(=O)N[C@H]1C(=O)N[C@@H](CC(N)=O)C(=O)N[C@H]2C(=O)N[C@H]3C(=O)N[C@H](C(=O)N[C@H](C(=O)NCC(=O)O)c4cc(O)cc(O)c4-c4cc3ccc4O)[C@H](O)c3ccc(c(Cl)c3)Oc3cc2cc(c3O[C@@H]2O[C@@H](CO)[C@@H](O)[C@H](O)[C@@H]2O[C@H]2C[C@](C)(Nc3ccc(OC)cc3)[C@H](O)[C@H](C)O2)Oc2ccc(cc2Cl)[C@H]1O`, the MIC in the assay with Staphylococcus aureus [1], against Staphylococcus aureus [2], against Enterococcus faecalis [3] and against Enterococcus faecalis [4] was greater than 10 µg/mL throughout.
Regarding `CC(C)C[C@@H](N)C(=O)N[C@H]1C(=O)N[C@@H](CC(N)=O)C(=O)N[C@H]2C(=O)N[C@H]3C(=O)N[C@H](C(=O)N[C@H](C(=O)NCC(=O)O)c4cc(O)cc(O)c4-c4cc3ccc4O)[C@H](O)c3ccc(c(Cl)c3)Oc3cc2cc(c3O[C@@H]2O[C@@H](CO)[C@@H](O)[C@H](O)[C@@H]2O[C@H]2C[C@](C)(Nc3ccc(-c4ccccc4)cc3)[C@H](O)[C@H](C)O2)Oc2ccc(cc2Cl)[C@H]1O`, the MIC was 5 µg/mL (≈ 3.04 µM) in the assay with Staphylococcus aureus [1], 5 µg/mL (≈ 3.04 µM) against Staphylococcus aureus [2], 5 µg/mL (≈ 3.04 µM) in the assay on Enterococcus faecalis [3] and greater than 10 µg/mL in the assay on Enterococcus faecalis [4].
Regarding `CCCN(CCC)[C@H](CC(C)C)C(=O)N[C@H]1C(=O)N[C@@H](CC(N)=O)C(=O)N[C@H]2C(=O)N[C@H]3C(=O)N[C@H](C(=O)N[C@H](C(=O)NCC(=O)O)c4cc(O)cc(O)c4-c4cc3ccc4O)[C@H](O)c3ccc(c(Cl)c3)Oc3cc2cc(c3O[C@@H]2O[C@@H](CO)[C@@H](O)[C@H](O)[C@@H]2O[C@H]2C[C@](C)(Nc3ccc(OC)cc3)[C@H](O)[C@H](C)O2)Oc2ccc(cc2Cl)[C@H]1O`, the MIC against Staphylococcus aureus [1] was 10 µg/mL (≈ 5.94 µM); in the assay with Staphylococcus aureus [2] it was greater than 10 µg/mL; against Enterococcus faecalis [3], greater than 10 µg/mL; in the assay with Enterococcus faecalis [4], greater than 10 µg/mL.
Regarding `CC(C)C[C@@H](Nc1ccc(F)cc1)C(=O)N[C@H]1C(=O)N[C@@H](CC(N)=O)C(=O)N[C@H]2C(=O)N[C@H]3C(=O)N[C@H](C(=O)N[C@H](C(=O)NCC(=O)O)c4cc(O)cc(O)c4-c4cc3ccc4O)[C@H](O)c3ccc(c(Cl)c3)Oc3cc2cc(c3O[C@@H]2O[C@@H](CO)[C@@H](O)[C@H](O)[C@@H]2O[C@H]2C[C@](C)(Nc3ccc(F)cc3)[C@H](O)[C@H](C)O2)Oc2ccc(cc2Cl)[C@H]1O`, the MIC against Staphylococcus aureus [1], with Staphylococcus aureus [2], against Enterococcus faecalis [3] and against Enterococcus faecalis [4] was greater than 10 µg/mL in each case.
In the case of `C/C=C/CN(C/C=C/C)[C@H](CC(C)C)C(=O)N[C@H]1C(=O)N[C@@H](CC(N)=O)C(=O)N[C@H]2C(=O)N[C@H]3C(=O)N[C@H](C(=O)N[C@H](C(=O)NCC(=O)O)c4cc(O)cc(O)c4-c4cc3ccc4O)[C@H](O)c3ccc(c(Cl)c3)Oc3cc2cc(c3O[C@@H]2O[C@@H](CO)[C@@H](O)[C@H](O)[C@@H]2O[C@H]2C[C@](C)(Nc3ccc(Cl)cc3)[C@H](O)[C@H](C)O2)Oc2ccc(cc2Cl)[C@H]1O`, the MIC against Staphylococcus aureus [1], with Staphylococcus aureus [2], in the assay with Enterococcus faecalis [3] and with Enterococcus faecalis [4] was greater than 10 µg/mL throughout.
As for `C/C=C/CN(C/C=C/C)[C@H](CC(C)C)C(=O)N[C@H]1C(=O)N[C@@H](CC(N)=O)C(=O)N[C@H]2C(=O)N[C@H]3C(=O)N[C@H](C(=O)N[C@H](C(=O)NCC(=O)O)c4cc(O)cc(O)c4-c4cc3ccc4O)[C@H](O)c3ccc(c(Cl)c3)Oc3cc2cc(c3O[C@@H]2O[C@@H](CO)[C@@H](O)[C@H](O)[C@@H]2O[C@H]2C[C@](C)(Nc3ccc(OC)cc3)[C@H](O)[C@H](C)O2)Oc2ccc(cc2Cl)[C@H]1O`, the MIC against Staphylococcus aureus [1] is greater than 10 µg/mL; in the assay on Staphylococcus aureus [2] it was 10 µg/mL (≈ 5.86 µM); with Enterococcus faecalis [3], greater than 10 µg/mL; in the assay on Enterococcus faecalis [4] it was greater than 10 µg/mL.
For `CC(C)C[C@@H](N)C(=O)N[C@@H]1C(=O)N[C@@H](CC(N)=O)C(=O)N[C@H]2C(=O)N[C@H]3C(=O)N[C@H](C(=O)N[C@H](C(=O)O)c4cc(O)cc(O)c4-c4cc3ccc4O)[C@H](O)c3ccc(c(Cl)c3)Oc3cc2cc(c3O[C@@H]2O[C@H](CO)[C@@H](O)[C@H](O)[C@H]2O[C@H]2C[C@](C)(N)C(O)[C@H](C)O2)Oc2ccc(cc2Cl)[C@H]1O` (some centres undefined) [DEMETHYLVANCOMYCIN], the MIC in the assay on Staphylococcus aureus [1] is less than 0.6 µg/mL; against Staphylococcus aureus [2], less than 0.6 µg/mL; in the assay on Enterococcus faecalis [3] it was 2.5 µg/mL (≈ 1.74 µM); in the assay on Enterococcus faecalis [4], greater than 10 µg/mL.
On to `CC(C)C[C@@H](NC(=O)OCC1c2ccccc2-c2ccccc21)C(=O)N[C@H]1C(=O)N[C@@H](CC(N)=O)C(=O)N[C@H]2C(=O)N[C@H]3C(=O)N[C@H](C(=O)N[C@H](C(=O)NCC(=O)O)c4cc(O)cc(O)c4-c4cc3ccc4O)[C@H](O)c3ccc(c(Cl)c3)Oc3cc2cc(c3O[C@@H]2O[C@@H](CO)[C@@H](O)[C@H](O)[C@@H]2O[C@H]2C[C@](C)(N)[C@H](O)[C@H](C)O2)Oc2ccc(cc2Cl)[C@H]1O`, for which the minimal inhibitory concentration (MIC) is 5 µg/mL (≈ 2.92 µM) in the assay on Staphylococcus aureus [1], 1.25 µg/mL (≈ 0.729 µM) in the assay with Staphylococcus aureus [2], 5 µg/mL (≈ 2.92 µM) in the assay with Enterococcus faecalis [3] and greater than 10 µg/mL in the assay with Enterococcus faecalis [4].
For `CCC(CC)N[C@H](CC(C)C)C(=O)N[C@H]1C(=O)N[C@@H](CC(N)=O)C(=O)N[C@H]2C(=O)N[C@H]3C(=O)N[C@H](C(=O)N[C@H](C(=O)NCC(=O)O)c4cc(O)cc(O)c4-c4cc3ccc4O)[C@H](O)c3ccc(c(Cl)c3)Oc3cc2cc(c3O[C@@H]2O[C@@H](CO)[C@@H](O)[C@H](O)[C@@H]2O[C@H]2C[C@](C)(Nc3ccc(Cl)cc3)[C@H](O)[C@H](C)O2)Oc2ccc(cc2Cl)[C@H]1O`, the MIC against Staphylococcus aureus [1], in the assay with Staphylococcus aureus [2], against Enterococcus faecalis [3] and against Enterococcus faecalis [4] was greater than 10 µg/mL in each case.
In the case of `CCCN(CCC)[C@H](CC(C)C)C(=O)N[C@H]1C(=O)N[C@@H](CC(N)=O)C(=O)N[C@H]2C(=O)N[C@H]3C(=O)N[C@H](C(=O)N[C@H](C(=O)NCC(=O)O)c4cc(O)cc(O)c4-c4cc3ccc4O)[C@H](O)c3ccc(c(Cl)c3)Oc3cc2cc(c3O[C@@H]2O[C@@H](CO)[C@@H](O)[C@H](O)[C@@H]2O[C@H]2C[C@](C)(Nc3ccc(Cl)cc3)[C@H](O)[C@H](C)O2)Oc2ccc(cc2Cl)[C@H]1O`, the MIC with Staphylococcus aureus [1] is 5 µg/mL (≈ 2.96 µM); in the assay with Staphylococcus aureus [2], 5 µg/mL (≈ 2.96 µM); in the assay on Enterococcus faecalis [3] it was greater than 10 µg/mL; against Enterococcus faecalis [4], greater than 10 µg/mL.

For the origin of these results see ChEMBL document CHEMBL1144385, “Solid-phase synthesis and antibacterial evaluations of N-demethylvancomycin derivatives” (2005).
